Experimental findings from patent US10227312B2, “Glucosylceramide synthase inhibitors for the treatment of diseases” (BIOMARIN PHARMACEUTICAL INC., priority 2015, dated 2019) are described below.

The test deals with glucosylceramide synthase (GCS) (Canis lupus familiaris, UniProt A0A8I3MXG6). As to the kind of experiment: GCS Enzymatic Assay (MDCK lysates). Format: biochemical, canine. Conditions: MDCK cell lysate, C6-NBD-Ceramide, 37° C. for 1 hour, LC/MS; read-out: Assay 1 (Enzyme Assay; MDCK lysates) IC50. Here is the method: Madin-Darby canine kidney (MDCK) cell lysate was prepared using M-PER Mammalian Protein Extraction Reagent (Thermal Scientific) in the presence of a protease inhibitor cocktail (Roche). Protein concentration was determined using BCA assay kit (Pierce). […] 0.1% DMSO was used as mock treatment or control. The reaction was terminated by adding 100 μL acetonitrile solution and subjected to LC/MS analysis.
glucosylceramide synthase (GCS), sequence (A0A8I3MXG6 1-394): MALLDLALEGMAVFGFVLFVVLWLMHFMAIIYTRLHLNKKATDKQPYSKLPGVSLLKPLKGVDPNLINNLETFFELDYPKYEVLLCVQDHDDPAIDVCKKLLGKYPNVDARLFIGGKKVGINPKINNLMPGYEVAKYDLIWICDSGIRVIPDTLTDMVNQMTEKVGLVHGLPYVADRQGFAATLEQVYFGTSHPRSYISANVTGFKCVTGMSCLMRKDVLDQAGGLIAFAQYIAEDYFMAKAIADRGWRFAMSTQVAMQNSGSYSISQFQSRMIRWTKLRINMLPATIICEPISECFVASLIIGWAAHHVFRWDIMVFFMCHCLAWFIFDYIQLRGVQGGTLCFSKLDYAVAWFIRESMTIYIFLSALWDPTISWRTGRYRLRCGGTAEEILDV
The quantitative analysis of NBD-Ceramide and glucosylceramide was performed on a Shimadzu ultra-fast liquid chromatography (Shimadzu, Japan) coupled with API 4000 triple quadrupole mass spectrometer (Applied Biosystems, Concord, Ontario, Canada). Sample separation was conducted on a Waters Xbridge™ BEH130 C18, 100 mm×4.6 mm i.d, 3.5 μm (Milford, Mass., USA). The mobile phase consisted of water and acetonitrile supplemented with 0.1% formic acid (v/v). The flow rate was 1.0 mL/min. The initial mobile phase was 20% acetonitrile and was ramped in a linear fashion to 50% acetonitrile in 0.4 min. From 0.4 to 1.5 min, the gradient was ramped to 98% acetonitrile, and then was held at […] until 8.0 min. Acetonitrile was reset to 20% in 1.5 min, and maintained until 10.0 min. The total run time was 10.0 min. The MS/MS detection was performed in ESI positive mode. […] The cell lysate was diluted with equal volume of acetonitrile. Aliquots of 50 μL diluted samples were added to 1.5 mL tubes, and 100 μL of acetonitrile containing internal standard (100 ng/mL tolbutamide) were added for protein precipitation. The mixture were vortexed and then centrifuged at 13000 rpm for 10 min. 70 μL of supernatant were mixed with 140 μL of H2O and the final solution were injected for LC/MS/MS analysis and IC50's and/or percent inhibitions calculated.
Turning to `O=C(N[C@H](CN1CCCC1)[C@H](O)c1ccc(OC2CC2)c(Cl)c1)C1=NOCc2c1sc1cc(Cl)ccc21` [Example 13, 7-chloro-N-((1R,2R)-1-(3-chloro-4-cyclopropoxyphenyl)-1-hydroxy-3-(pyrrolidin-1-yl)propan-2-yl)-1H-benzo[4,5]thieno[2,3-d][1,2]oxazine-4-carboxamide], the IC50 was 0.01 to 0.1 µM.

`O=C(N[C@H](CN1CCC1)[C@H](O)c1ccc(OC2CC2)c(F)c1)C1=NOCc2c1sc1cc(Cl)ccc21` [Example 15, N-((1R,2R)-3-(azetidin-1-yl)-1-(4-cyclopropoxy-3-fluorophenyl)-1-hydroxypropan-2-yl)-7-chloro-1H-benzo[4,5]thieno[2,3-d][1,2]oxazine-4-carboxamide]: the IC50 lay within 0.1 to 1 µM.

As to `O=C(N[C@H](CN1CCC1)[C@H](O)c1ccc(OC2CC2)c(Cl)c1)C1=NOCc2c1sc1cc(Cl)ccc21` [Example 16, N-((1R,2R)-3-(azetidin-1-yl)-1-(3-chloro-4-cyclopropoxyphenyl)-1-hydroxypropan-2-yl)-7-chloro-1H-benzo[4,5]thieno[2,3-d][1,2]oxazine-4-carboxamide], the IC50 fell in the range of 0.1 to 1 µM.

As to `CC1(C)ON=C(C(=O)N[C@H](CN2CCCC2)[C@H](O)c2ccc(OC3CC3)c(Cl)c2)c2ccc(-c3ccc(F)cc3)cc21` [Example 23, N-((1R,2R)-1-(3-chloro-4-cyclopropoxyphenyl)-1-hydroxy-3-(pyrrolidin-1-yl)propan-2-yl)-7-(4-fluorophenyl)-1,1-dimethyl-1H-benzo[d][1,2]oxazine-4-carboxamide], the IC50 was in the range of 0.1 to 1 µM.

`O=C(N[C@H](CN1CCC1)[C@H](O)c1ccc(OC2CC2)cc1)C1=NCCc2cc(-c3ccc(F)cc3)ccc21` [Example 40, N-((1R,2R)-3-(azetidin-1-yl)-1-(4-cyclopropoxyphenyl)-1-hydroxypropan-2-yl)-6-(4-fluorophenyl)-3,4-dihydroisoquinoline-1-carboxamide]: the IC50 lay within 0.01 to 0.1 µM.

Take `CC1(C)Cc2cc(-c3ccc(F)cc3)ccc2C(C(=O)N[C@H](CN2CCCC2)[C@H](O)c2ccc(OC3CC3)c(Cl)c2)=N1` [Example 41, N-((1R,2R)-1-(3-chloro-4-cyclopropoxyphenyl)-1-hydroxy-3-(pyrrolidin-1-yl)propan-2-yl)-6-(4-fluorophenyl)-3,3-dimethyl-3,4-dihydroisoquinoline-1-carboxamide]: the IC50 lay within 0.1 to 1 µM.

For the compound `O=C(N[C@H](CN1CCCC1)[C@H](O)c1ccc(OC2CC2)c(Cl)c1)C1OCCc2cc(-c3ccc(F)cc3)ccc21` (stereo partly drawn) [Example 42, N-((1R,2R)-1-(3-chloro-4-cyclopropoxyphenyl)-1-hydroxy-3-(pyrrolidin-1-yl)propan-2-yl)-6-(4-fluorophenyl)isochroman-1-carboxamide], the IC50 lay in the range of 0.1 to 1 µM.

On to `O=C(N[C@H](CN1CCCC1)[C@H](O)c1ccc(OC2CC2)c(Cl)c1)C1OCCc2c1sc1cc(Cl)ccc21` (stereo partly drawn) [Example 43, 7-chloro-N-((1R,2R)-1-(3-chloro-4-cyclopropoxyphenyl)-1-hydroxy-3-(pyrrolidin-1-yl)propan-2-yl)-3,4-dihydro-1H-benzo[4,5]thieno[2,3-c]pyran-1-carboxamide], for which the IC50 was 0.1 to 1 µM.
